Results: patent publication US11827639B2, “TDO2 and IDO1 inhibitors” (Genentech, Inc., priority 2017, dated 2023)
Where two headings read alike, the source gives them in different places.

What was measured:
TDO2 [1] = target: T1, TDO2 (Homo sapiens, UniProt P48775); experiment: TDO2 cell assay (NFK GreenScreen) in SW48 cells; details: read-out: TDO2 cell Fluor EC50, NFK GreenScreen fluorescence
IDO1 [2] = target: T2, IDO1 (Homo sapiens, UniProt P14902)
IDO1 [3] = target: T2, IDO1; experiment: cell-based
TDO2 [4] = target: T1, TDO2; experiment: cell-based

T2 sequence (P14902 whole entry): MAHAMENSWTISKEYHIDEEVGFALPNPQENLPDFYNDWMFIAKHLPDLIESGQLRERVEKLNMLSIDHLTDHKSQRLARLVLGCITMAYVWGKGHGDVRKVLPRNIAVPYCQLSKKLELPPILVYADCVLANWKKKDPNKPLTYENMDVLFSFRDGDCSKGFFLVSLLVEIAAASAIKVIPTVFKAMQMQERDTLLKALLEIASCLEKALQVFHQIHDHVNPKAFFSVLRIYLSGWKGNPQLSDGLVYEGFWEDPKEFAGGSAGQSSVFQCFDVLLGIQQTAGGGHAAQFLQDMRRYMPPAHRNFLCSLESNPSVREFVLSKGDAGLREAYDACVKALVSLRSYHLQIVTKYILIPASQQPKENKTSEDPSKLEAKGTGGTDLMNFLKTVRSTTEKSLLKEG
T1 sequence (P48775 whole entry): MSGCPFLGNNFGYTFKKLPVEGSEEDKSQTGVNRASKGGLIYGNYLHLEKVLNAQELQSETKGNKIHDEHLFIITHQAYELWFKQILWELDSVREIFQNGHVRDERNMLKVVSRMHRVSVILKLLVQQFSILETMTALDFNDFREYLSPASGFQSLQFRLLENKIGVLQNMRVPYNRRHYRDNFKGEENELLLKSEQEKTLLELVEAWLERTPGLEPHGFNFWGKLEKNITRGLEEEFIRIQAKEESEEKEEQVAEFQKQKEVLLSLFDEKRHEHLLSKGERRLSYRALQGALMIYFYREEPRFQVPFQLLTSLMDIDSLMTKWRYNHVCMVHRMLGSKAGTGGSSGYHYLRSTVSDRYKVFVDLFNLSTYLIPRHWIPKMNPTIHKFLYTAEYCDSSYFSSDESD

Row | SMILES | EC50 (TDO2 [1]) | EC50 (IDO1 [2]) | EC50 (IDO1 [3]) | EC50 (TDO2 [4])
1 | c1ccc2c(c1)-c1cncn1[C@H]2C1CCCCC1 [Example 19b] | 33 nM | 416 nM |  | 
2 | O=S(=O)(N1CCC1)N1CCC(C2c3ccc(F)cc3-c3cncn32)CC1 (centres unmarked) [Example 88, 5-(1-(azetidin-1-ylsulfonyl)piperidin-4-yl)-8-fluoro-5H-imidazo[5,1-a]isoindole] |  |  | 5300 nM | 900 nM
3 | Cn1cc(C2c3ccccc3-c3cncn32)ccc1=O (single isomer, unassigned) [Example 84b] |  |  | 12000 nM | 360 nM
4 | CS(=O)(=O)N1CCCC(C2c3ccccc3-c3cncn32)C1 (centres unmarked) [Example 71, 5-(1-(methylsulfonyl)piperidin-3-yl)-5H-imidazo[5,1-a]isoindole] |  |  | 14000 nM | 560 nM
5 | NC(=O)C1CCC(C2c3ccccc3-c3cncn32)CC1 (single isomer, unassigned) [Example 60d] |  |  | 17000 nM | 10000 nM
6 | c1ccc2c(c1)-c1cncn1C2C1CCC1 (centres unmarked) [Example 34, 5-cyclobutyl-5H-imidazo[5,1-a]isoindole] |  |  | 2400 nM | 990 nM
7 | c1ccc2c(c1)-c1cncn1[C@@H]2C1CCCCC1 [Example 19a] |  |  | 10000 nM | 17000 nM
8 | Cn1cc(C2c3ccccc3-c3cncn32)cn1 (single isomer, unassigned) [Example 79b] |  |  | 8500 nM | 530 nM
9 | CS(=O)(=O)N1CC2CC(C3c4ccccc4-c4cncn43)CC2C1 (centres unmarked) [Example 75a, 5-(2-(methylsulfonyl)octahydrocyclopenta[c]pyrrol-5-yl)-5H-imidazo[5,1-a]isoindole] |  |  | 7600 nM | 2100 nM
10 | CC(C)CC1c2ccccc2-c2cncn21 (centres unmarked) [Example 53, 5-isobutyl-5H-imidazo[5,1-a]isoindole] |  |  | 4400 nM | 870 nM
11 | CS(=O)(=O)c1ccc(C2c3ccccc3-c3cncn32)cc1 (centres unmarked) [Example 56, 5-(4-(methylsulfonyl)phenyl)-5H-imidazo[5,1-a]isoindole] |  |  | 4600 nM | 640 nM
12 | NS(=O)(=O)N1CCCC(C2c3ccccc3-c3cncn32)C1 (centres unmarked) [Example 64, 3-(5H-imidazo[5,1-a]isoindol-5-yl)piperidine-1-sulfonamide] |  |  | 4400 nM | 410 nM

Second part, the molecule after the results:

Row | EC50 (TDO2 [1]) | EC50 (IDO1 [2]) | EC50 (IDO1 [3]) | EC50 (TDO2 [4]) | SMILES
13 |  |  | 5900 nM | 220 nM | O=S(=O)(NC1CC1)N1CCC(C2c3ccc(F)cc3-c3cncn32)CC1 (centres unmarked) [Example 89, N-cyclopropyl-4-(8-fluoro-5H-imidazo[5,1-a]isoindol-5-yl)piperidine-1-sulfonamide]
14 |  |  | 11000 nM | 590 nM | c1ccc2c(c1)-c1cncn1C2C1CC2(COC2)C1 (centres unmarked) [Example 39, 5-(2-oxaspiro[3.3]heptan-6-yl)-5H-imidazo[5,1-a]isoindole]
15 |  |  | 9000 nM | 390 nM | NS(=O)(=O)N1CC2C(C1)C2C1c2ccccc2-c2cncn21 (centres unmarked) [Example 96, 6-(5H-imidazo[5,1-a]isoindol-5-yl)-3-azabicyclo[3.1.0]hexane-3-sulfonamide]
16 |  |  | 8600 nM | 770 nM | CS(=O)(=O)N1CC2C(C1)C2C1c2ccccc2-c2cncn21 (centres unmarked) [Example 93, 5-(3-(methylsulfonyl)-3-azabicyclo[3.1.0]hexan-6-yl)-5H-imidazo[5,1-a]isoindole]
17 |  |  | 21000 nM | 690 nM | OCc1cc(F)cc(C2c3ccccc3-c3cncn32)c1 (single isomer, unassigned) [Example 09a]
18 |  |  | 3100 nM | 120 nM | NC(=O)c1cc(F)cc(C2c3ccccc3-c3cncn32)c1 (centres unmarked) [Example 51, 3-fluoro-5-(5H-imidazo[5,1-a]isoindol-5-yl)benzamide]
19 |  |  | 4800 nM | 64 nM | NS(=O)(=O)N1CCC(C2c3ccc(F)cc3-c3cncn32)CC1 (single isomer, unassigned) [Example 74b]
